Assay results reported in US11963995B2, “Methods comprising desmopressin” (Ferring B.V., priority 2008, dated 2024).

Tested on: adult patients with nocturia
Test: Duration of initial period of undisturbed sleep, change from baseline to Day 28 (Part I)
Format: in vivo, human
Conditions: for Change from baseline to final visit (Day 28) in duration of initial period of undisturbed sleep, mean / Change from baseline to final visit (Day 28) in duration of initial period of undisturbed sleep, median: ITT, Part I; for median increase in initial period of sleep: baseline to Day 28
Protocol: As used herein, the term “first sleep period” refers to the time elapsed from bedtime to either first void or morning arising.
All treatments were administered orally once per night approximately 1 hour prior to bedtime; subjects were instructed to limit their fluid intake prior to drug self-administration. […] Randomization was to be stratified by age (<65, ≥65 years) and by the absence/presence of nocturnal polyuria, defined as a ratio of nighttime urine volume/24-hour urine volume 33%. To achieve the desired number of subjects within each stratum, enrollment of subjects in a particular stratum (age and/or presence/absence of nocturnal polyuria) could be halted. If this was necessary, all investigative sites were to be informed in writing at least 1 week in advance to stop screening in a population of subjects.
The secondary efficacy endpoints were: (1) durability of effect achieved in Part I; (2) change in initial period of undisturbed sleep, defined as the elapsed time in minutes from going to bed with the intention of sleeping to the time of awakening for the first nocturnal void; and (3) change in duration of total sleep time. Additional secondary endpoints were collected, e.g., change in nocturia-specific quality of life as assessed by scores on the International Consultation on Incontinence Modular Questionnaire—Noctuira and the Noctuira Quality of Life Questionnaire, change in quality of sleep as assessed by the global score of the Pittsburgh Sleep Quality Index, and change in overall quality of life as assessed by the short form—12v2. A description of the additional secondary efficacy endpoints and their accompanying data are not provided herein.
Missing values concerning number of nocturnal voids at Day 8, Day 15, Day 22, and Day 28 in Part I were imputed using last observation carried forward (LOCF). Missing values concerning sleep disturbance and urine volume (for average 24-hour urine volume and average nocturnal urine volume) were not imputed.

[1] = 10 ug, all males with monitoring
[2] = 10 ug, females over 50 years of age
[3] = 10 ug, females over 65 years of age
[4] = 25 ug, all males with monitoring
[5] = 25 ug, females over 50 years of age
[6] = 25 ug, females over 65 years of age
[7] = 50 ug, all males with monitoring
[8] = 50 ug, females over 50 years of age
[9] = 50 ug, females over 65 years of age
[10] = 100 ug, all males with monitoring
[11] = 100 ug, females over 50 years of age
[12] = 100 ug, females over 65 years of age

NC(=O)CC[C@@H]1NC(=O)[C@H](Cc2ccccc2)NC(=O)[C@H](Cc2ccc(O)cc2)NC(=O)CCSSC[C@@H](C(=O)N2CCC[C@H]2C(=O)N[C@H](CCCN=C(N)N)C(=O)NCC(N)=O)NC(=O)[C@H](CC(N)=O)NC1=O [desmopressin]
Change from baseline to final visit (Day 28) in duration of initial period of undisturbed sleep, mean (10 ug, all females): 54 min | Change from baseline to final visit (Day 28) in duration of initial period of undisturbed sleep, median (10 ug, all females): 46 min | Change from baseline to final visit (Day 28) in duration of initial period of undisturbed sleep, mean (10 ug, all groups): 51 min | Change from baseline to final visit (Day 28) in duration of initial period of undisturbed sleep, median (10 ug, all groups): 51 min | Change from baseline to final visit (Day 28) in duration of initial period of undisturbed sleep, mean [1]: 54 min | Change from baseline to final visit (Day 28) in duration of initial period of undisturbed sleep, median [1]: 59 min | Change from baseline to final visit (Day 28) in duration of initial period of undisturbed sleep, mean (10 ug, all males): 48 min | Change from baseline to final visit (Day 28) in duration of initial period of undisturbed sleep, median (10 ug, all males): 56 min | Change from baseline to final visit (Day 28) in duration of initial period of undisturbed sleep, mean [2]: 33 min | Change from baseline to final visit (Day 28) in duration of initial period of undisturbed sleep, median [2]: 27 min | Change from baseline to final visit (Day 28) in duration of initial period of undisturbed sleep, mean [3]: 18 min | Change from baseline to final visit (Day 28) in duration of initial period of undisturbed sleep, median [3]: 46 min | Change from baseline to final visit (Day 28) in duration of initial period of undisturbed sleep, mean (25 ug, all females): 113 min | Change from baseline to final visit (Day 28) in duration of initial period of undisturbed sleep, median (25 ug, all females): 95 min | Change from baseline to final visit (Day 28) in duration of initial period of undisturbed sleep, mean (25 ug, all groups): 83 min | Change from baseline to final visit (Day 28) in duration of initial period of undisturbed sleep, median (25 ug, all groups): 62 min | Change from baseline to final visit (Day 28) in duration of initial period of undisturbed sleep, mean [4]: 57 min | Change from baseline to final visit (Day 28) in duration of initial period of undisturbed sleep, median [4]: 54 min | Change from baseline to final visit (Day 28) in duration of initial period of undisturbed sleep, mean (25 ug, all males): 61 min | Change from baseline to final visit (Day 28) in duration of initial period of undisturbed sleep, median (25 ug, all males): 55 min | median increase in initial period of sleep (25 μg): approximately 1 hour | Change from baseline to final visit (Day 28) in duration of initial period of undisturbed sleep, mean [5]: 122 min | Change from baseline to final visit (Day 28) in duration of initial period of undisturbed sleep, median [5]: 96 min | Change from baseline to final visit (Day 28) in duration of initial period of undisturbed sleep, mean [6]: 131 min | Change from baseline to final visit (Day 28) in duration of initial period of undisturbed sleep, median [6]: 113 min | Change from baseline to final visit (Day 28) in duration of initial period of undisturbed sleep, mean (50 ug, all females): 98 min | Change from baseline to final visit (Day 28) in duration of initial period of undisturbed sleep, median (50 ug, all females): 70 min | Change from baseline to final visit (Day 28) in duration of initial period of undisturbed sleep, mean (50 ug, all groups): 85 min | Change from baseline to final visit (Day 28) in duration of initial period of undisturbed sleep, median (50 ug, all groups): 63 min | Change from baseline to final visit (Day 28) in duration of initial period of undisturbed sleep, mean [7]: 64 min | Change from baseline to final visit (Day 28) in duration of initial period of undisturbed sleep, median [7]: 59 min | Change from baseline to final visit (Day 28) in duration of initial period of undisturbed sleep, mean (50 ug, all males): 72 min | Change from baseline to final visit (Day 28) in duration of initial period of undisturbed sleep, median (50 ug, all males): 55 min | median increase in initial period of sleep (50 μg): approximately 1 hour | Change from baseline to final visit (Day 28) in duration of initial period of undisturbed sleep, mean [8]: 83 min | Change from baseline to final visit (Day 28) in duration of initial period of undisturbed sleep, median [8]: 63 min | Change from baseline to final visit (Day 28) in duration of initial period of undisturbed sleep, mean [9]: 42 min | Change from baseline to final visit (Day 28) in duration of initial period of undisturbed sleep, median [9]: 30 min | Change from baseline to final visit (Day 28) in duration of initial period of undisturbed sleep, mean (100 ug, all females): 114 min | Change from baseline to final visit (Day 28) in duration of initial period of undisturbed sleep, median (100 ug, all females): 93 min | Change from baseline to final visit (Day 28) in duration of initial period of undisturbed sleep, mean (100 ug, all groups): 107 min | Change from baseline to final visit (Day 28) in duration of initial period of undisturbed sleep, median (100 ug, all groups): 96 min | Change from baseline to final visit (Day 28) in duration of initial period of undisturbed sleep, mean [10]: 108 min | Change from baseline to final visit (Day 28) in duration of initial period of undisturbed sleep, median [10]: 116 min | Change from baseline to final visit (Day 28) in duration of initial period of undisturbed sleep, mean (100 ug, all males): 100 min | Change from baseline to final visit (Day 28) in duration of initial period of undisturbed sleep, median (100 ug, all males): 101 min | Change from baseline to final visit (Day 28) in duration of initial period of undisturbed sleep, mean [11]: 108 min | Change from baseline to final visit (Day 28) in duration of initial period of undisturbed sleep, median [11]: 89 min | Change from baseline to final visit (Day 28) in duration of initial period of undisturbed sleep, mean [12]: 81 min | Change from baseline to final visit (Day 28) in duration of initial period of undisturbed sleep, median [12]: 70 min
